Experiments:
[1] = target: GST-tagged KRAS-G12V (2-169) (Homo sapiens, UniProt P01116, G12V); experiment: Nucleotide exchange assay (NEA), SOS-mediated, HTRF, KRAS G12V; format: biochemical; details: Table 4; IC50 extracted at 90 min; 80 nM SOS
How it was run: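 Exchange onto fluorescent GTP-DY-647P1 (150 nM final) catalysed by 80 nM SOS1cat was followed by Tb-anti-GST HTRF at RT for up to 90 min, after 1 h compound pre-incubation with 0.25 nM GST-tagged KRAS-G12V (2-169), pH 7.3. DMSO = 0%, no-SOS blank = 100%; 4-parameter IC50 taken at 90 min.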

[2] = target: GST-tagged KRAS-G12D (2-169) (Homo sapiens, UniProt P01116, G12D); experiment: Nucleotide exchange assay (NEA), SOS-mediated, HTRF, KRAS G12D; format: biochemical; details: Table 4; IC50 extracted at 30 min; 20 nM SOScat; read-out: NEA G12D IC50
How it was run: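 SOS1cat-driven loading of fluorescent GTP-DY-647P1 (150 nM) onto GST-KRAS-G12D (2-169, 0.25 nM) read by time-resolved FRET; SOScat 20 nM, compound preincubated with KRAS 1 h at RT. Signal blanked to no-SOS reactions, normalized to DMSO; IC50 fitted from the 30-min read.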

[3] = tested on: phospho-ERK in GP2D (KRAS-G12D) cells; experiment: pERK In Cell Western (ICW) assay (Method B), GP2D; format: cell-based
How it was run: (§1)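 After overnight attachment, cells received nine half-log compound concentrations for 3 hours, were fixed, permeabilized and probed with phospho-ERK antibody plus DRAQ5. Normalized pERK signal versus blank control yields IC50 via variable-slope four-parameter fit.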

[4] = tested on: phospho-ERK in SW620 (KRAS-G12V) cells; experiment: pERK In Cell Western (ICW) assay (Method B), SW620; format: cell-based
How it was run: as §1

[5] = Homo sapiens, SW-620, 3 h, Table 4

Chain of GST-tagged KRAS-G12V (2-169) (P01116 2-169 isoform P01116-2 G12V): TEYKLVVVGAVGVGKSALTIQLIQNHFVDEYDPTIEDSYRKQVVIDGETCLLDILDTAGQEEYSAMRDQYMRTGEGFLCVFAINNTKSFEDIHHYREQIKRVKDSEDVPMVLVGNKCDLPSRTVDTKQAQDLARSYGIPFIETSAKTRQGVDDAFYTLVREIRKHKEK
Chain of GST-tagged KRAS-G12D (2-169) (P01116 2-169 isoform P01116-2 G12D): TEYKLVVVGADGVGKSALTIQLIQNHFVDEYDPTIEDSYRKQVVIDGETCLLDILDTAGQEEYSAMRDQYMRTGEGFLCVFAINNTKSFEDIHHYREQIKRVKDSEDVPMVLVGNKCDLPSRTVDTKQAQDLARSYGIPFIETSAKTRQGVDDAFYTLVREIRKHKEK

SMILES	IC50 [1]	IC50 [2]	IC50 ([3]; GP2d, 3 h, Table 4)	IC50 [4, 5]	IC50 ([3]; Table 4, 3 hours)	IC50 ([4]; Table 4, 3 hours)
N#Cc1c(N)sc2c1C1(CC2)CN(c2nc(OC[C@@]34CCCN3C[C@H](F)C4)nc(N3CCC[C@@H](O)[C@@H](O)C3)n2)C1 [Compound 81, 2-amino-1′-[4-[(3S,4R)-3,4-dihydroxyazepan-1-yl]-6-[[(2R,8S)-2-fluoro-1,2,3,5,6,7-hexahydropyrrolizin-8-yl]methoxy]-1,3,5-triazin-2-yl]spiro[5,6-dihydrocyclopenta[b]thiophene-4,3′-azetidine]-3-carbonitrile; 2,2,2-trifluoroacetic acid]	< 10 nM	< 10 nM	100 to 1000 nM	1000 to 20000 nM	–	–
C[C@@]1(O)CCCN(c2nc(OCC3(CN4CCOCC4)CC3)nc(N3CC4(C3)c3c(sc(N)c3C#N)CC4(F)F)n2)C1 [Compound 98, 2-amino-5,5-difluoro-1′-[4-[(3R)-3-hydroxy-3-methyl-1-piperidyl]-6-[[1-(morpholinomethyl)cyclopropyl]methoxy]-1,3,5-triazin-2-yl]spiro[6H-cyclopenta[b]thiophene-4,3′-azetidine]-3-carbonitrile]	< 10 nM	< 10 nM	10 to 100 nM	100 to 1000 nM	–	–
CCN(c1nc(OC[C@@H]2CCCN2C)nc(N2CC3(C2)SCc2sc(N)c(C#N)c23)n1)[C@H](C)c1cccnc1N [Compound 207, 2-amino-1′-[4-[[(1R)-1-(2-amino-3-pyridyl)ethyl]-ethyl-amino]-6-[[(2S)-1-methylpyrrolidin-2-yl]methoxy]-1,3,5-triazin-2-yl]spiro[6H-thieno[3,4-b]thiophene-4,3′-azetidine]-3-carbonitrile]	< 10 nM	< 10 nM	10 to 100 nM	10 to 100 nM	–	–
N#Cc1c(N)sc2c1C1(CC2)CN(c2nc(OC[C@@]34CCCN3C[C@H](F)C4)nc(N3CCCCC(O)C3)n2)C1 (stereo partly drawn) [Compound 50, 2-amino-1′-[4-(3-hydroxyazepan-1-yl)-6-[[(2R,8S)-2-fluoro-1,2,3,5,6,7-hexahydropyrrolizin-8-yl]methoxy]-1,3,5-triazin-2-yl]spiro[5,6-dihydrocyclopenta[b]thiophene-4,3′-azetidine]-3-carbonitrile]	10 to 100 nM	10 to 100 nM	100 to 1000 nM	100 to 1000 nM	–	–
N#Cc1c(N)sc2c1C1(CN(c3nc(OCC4(CN5CCOCC5)CC4)nc(N4C[C@H]5CC[C@@H](C4)N5)n3)C1)SC2 [Compound 167, 1-(4-((1R,5S)-3,8-diazabicyclo[3.2.1]octan-3-yl)-6-((1-(morpholinomethyl)cyclopropyl)methoxy)-1,3,5-triazin-2-yl)-2′-amino-6′H-spiro[azetidine-3,4′-thieno[3,4-b]thiophene]-3′-carbonitrile]	10 to 100 nM	< 10 nM	< 10 nM	1000 to 20000 nM	–	–
CN(Cc1cncs1)c1nc(OC[C@@]23CCCN2C[C@H](F)C3)nc(N2CC3(CCc4sc(N)c(C#N)c43)C2)n1 [Compound 152, 2-amino-1′-[4-[[(2R,8S)-2-fluoro-1,2,3,5,6,7-hexahydropyrrolizin-8-yl]methoxy]-6-[methyl(thiazol-5-ylmethyl)amino]-1,3,5-triazin-2-yl]spiro[5,6-dihydrocyclopenta[b]thiophene-4,3′-azetidine]-3-carbonitrile]	100 to 1000 nM	1000 to 20000 nM	1000 to 20000 nM	1000 to 20000 nM	–	–
CCN(c1nc(OC[C@@]23CCCN2C[C@H](F)C3)nc(N2CC3(C2)SCc2sc(N)c(C#N)c23)n1)[C@H](C)c1cccnc1N [Compound 139A, 2-amino-1′-[4-[[(1*)-1-(2-amino-3-pyridyl)ethyl]-ethyl-amino]-6-[[(2R,8S)-2-fluoro-1,2,3,5,6,7-hexahydropyrrolizin-8-yl]methoxy]-1,3,5-triazin-2-yl]spiro[6H-thieno[3,4-b]thiophene-4,3′-azetidine]-3-carbonitrile]	< 10 nM	< 10 nM	< 10 nM	< 10 nM	–	–
CN(c1nc(OC[C@@]23CCCN2C[C@H](F)C3)nc(N2CC3(C2)SCc2sc(N)c(C#N)c23)n1)C1CC1 [Compound 160, 2-amino-1′-[4-[cyclopropyl(methyl)amino]-6-[[(2R,8S)-2-fluoro-1,2,3,5,6,7-hexahydropyrrolizin-8-yl]methoxy]-1,3,5-triazin-2-yl]spiro[6H-thieno[3,4-b]thiophene-4,3′-azetidine]-3-carbonitrile]	10 to 100 nM	10 to 100 nM	100 to 1000 nM	100 to 1000 nM	–	–
N#Cc1c(N)sc2c1C1(CC2)CN(c2nc(OC[C@@]34CCCN3C[C@H](F)C4)nc(N3CCc4n[nH]c(N)c4C3)n2)C1 [Compound 35, 2-amino-1′-[4-(3-amino-2,4,6,7-tetrahydropyrazolo[4,3-c]pyridin-5-yl)-6-[[(2R,8S)-2-fluoro-1,2,3,5,6,7-hexahydropyrrolizin-8-yl]methoxy]-1,3,5-triazin-2-yl]spiro[5,6-dihydrocyclopenta[b]thiophene-4,3′-azetidine]-3-carbonitrile]	1000 to 20000 nM	100 to 1000 nM	1000 to 20000 nM	≥ 20000 nM	–	–
CCN(c1nc(OC[C@@]23CCCN2C[C@H](F)C3)nc(N2CC3(C2)SCc2sc(N)c(C#N)c23)n1)C(C)c1nccnc1N (single isomer, unassigned) [Compound 168B, 2-amino-1′-[4-[[(1*)-1-(3-aminopyrazin-2-yl)ethyl]-ethyl-amino]-6-[[(2R,8S)-2-fluoro-1,2,3,5,6,7-hexahydropyrrolizin-8-yl]methoxy]-1,3,5-triazin-2-yl]spiro[6H-thieno[3,4-b]thiophene-4,3′-azetidine]-3-carbonitrile]	< 10 nM	10 to 100 nM	–	–	100 to 1000 nM	10 to 100 nM
CC(c1cccnc1N)N(CCO)c1nc(OC[C@@]23CCCN2C[C@H](F)C3)nc(N2CC3(CCc4sc(N)c(C#N)c43)C2)n1 (single isomer, unassigned) [Compound 122B, 2-amino-1′-[4-[[(1*)-1-(2-amino-3-pyridyl)ethyl]-(2-hydroxyethyl)amino]-6-[[(2R,8S)-2-fluoro-1,2,3,5,6,7-hexahydropyrrolizin-8-yl]methoxy]-1,3,5-triazin-2-yl]spiro[5,6-dihydrocyclopenta[b]thiophene-4,3′-azetidine]-3-carbonitrile]	< 10 nM	< 10 nM	–	–	10 to 100 nM	10 to 100 nM
C[C@H](c1cccnc1N)N(CC(F)F)c1nc(OC[C@@]23CCCN2C[C@H](F)C3)nc(N2CC3(C2)SCc2sc(N)c(C#N)c23)n1 [Compound 183, 2-amino-1′-[4-[[(1R)-1-(2-amino-3-pyridyl)ethyl]-(2,2-difluoroethyl)amino]-6-[[(2R,8S)-2-fluoro-1,2,3,5,6,7-hexahydropyrrolizin-8-yl]methoxy]-1,3,5-triazin-2-yl]spiro[6H-thieno[3,4-b]thiophene-4,3′-azetidine]-3-carbonitrile]	< 10 nM	< 10 nM	< 10 nM	< 10 nM	–	–
N#Cc1c(N)sc2c1C1(CC2)CN(c2nc(OCC3(CN4CCOCC4)CC3)nc(N3CCCC(C#N)C3)n2)C1 (stereo not shown) [Compound 56, 2-amino-1′-[4-(3-cyano-1-piperidyl)-6-[[1-(morpholinomethyl)cyclopropyl]methoxy]-1,3,5-triazin-2-yl]spiro[5,6-dihydrocyclopenta[b]thiophene-4,3′-azetidine]-3-carbonitrile]	10 to 100 nM	100 to 1000 nM	100 to 1000 nM	1000 to 20000 nM	–	–
C[C@H](c1cccnc1N)N(C)c1nc(OC[C@@]23CCCN2C[C@H](F)C3)nc(N2CC3(CCCc4sc(N)c(C#N)c43)C2)n1 [Compound 163, 2-amino-1′-[4-[[(1R)-1-(2-amino-3-pyridyl)ethyl]-methyl-amino]-6-[[(2R,8S)-2-fluoro-1,2,3,5,6,7-hexahydropyrrolizin-8-yl]methoxy]-1,3,5-triazin-2-yl]spiro[6,7-dihydro-5H-benzothiophene-4,3′-azetidine]-3-carbonitrile]	< 10 nM	< 10 nM	< 10 nM	< 10 nM	–	–
N#Cc1c(N)sc2c1C1(CC2)CN(c2nc(OCC3(CN4CCOCC4)CC3)nc(N3CCCCC(C#N)C3)n2)C1 (stereo not shown) [Compound 86, 2-amino-1′-[4-(3-cyanoazepan-1-yl)-6-[[1-(morpholinomethyl)cyclopropyl]methoxy]-1,3,5-triazin-2-yl]spiro[5,6-dihydrocyclopenta[b]thiophene-4,3′-azetidine]-3-carbonitrile]	10 to 100 nM	10 to 100 nM	100 to 1000 nM	1000 to 20000 nM	–	–
N#Cc1c(N)sc2c1C1(CN(c3nc(OCC4(CN5CCOCC5)CC4)nc(N4CCNC[C@H]4C(F)F)n3)C1)SC2 [Compound 190, (S)-2′-amino-1-(4-(2-(difluoromethyl)piperazin-1-yl)-6-((1-(morpholinomethyl)cyclopropyl)methoxy)-1,3,5-triazin-2-yl)-6′H-spiro[azetidine-3,4′-thieno[3,4-b]thiophene]-3′-carbonitrile]	10 to 100 nM	< 10 nM	100 to 1000 nM	1000 to 20000 nM	–	–

Source: US12421254B2, “KRAS modulators and uses thereof” (Quanta Therapeutics, Inc., priority 2023, dated 2025)
